Results published in the NIST ThermoML archive (doi:10.1021/je060179e).
± gives the expanded uncertainty stated by the source.

Test: xn = mol fraction of the nth substance listed
Conditions: for mass density: 101 kPa, Liquid

CCCCO [butan-1-ol] + CCCCCCC
Conditions	mass density [kg/m3]	surface tension liquid-gas [mN/m]
288.15 K, x2 = 0.0498	–	24.31 ± 0.29
288.15 K, x2 = 0.051	803.35 ± 0.44	–
288.15 K, x2 = 0.0998	794.33 ± 0.46	–
288.15 K, x2 = 0.1007	–	23.81 ± 0.29
288.15 K, x2 = 0.2005	–	22.99 ± 0.28
288.15 K, x2 = 0.2067	776.12 ± 0.49	–
288.15 K, x2 = 0.3043	–	22.37 ± 0.28
288.15 K, x2 = 0.3087	760.61 ± 0.51	–
288.15 K, x2 = 0.4058	–	21.88 ± 0.28
288.15 K, x2 = 0.4059	747.14 ± 0.53	–
288.15 K, x2 = 0.5052	734.63 ± 0.56	–
288.15 K, x2 = 0.5054	–	21.56 ± 0.27
288.15 K, x2 = 0.5986	724.01 ± 0.57	–
288.15 K, x2 = 0.599	–	21.38 ± 0.27
288.15 K, x2 = 0.7072	–	21.17 ± 0.27
288.15 K, x2 = 0.7259	710.89 ± 0.6	–
288.15 K, x2 = 0.8008	–	21.03 ± 0.27
288.15 K, x2 = 0.8066	703.39 ± 0.61	–
288.15 K, x2 = 0.8982	–	20.94 ± 0.27
288.15 K, x2 = 0.908	694.8 ± 0.62	–
288.15 K, x2 = 0.9523	691.35 ± 0.63	–
288.15 K, x2 = 0.9532	–	20.87 ± 0.27
293.15 K, x2 = 0.0503	–	23.76 ± 0.28
293.15 K, x2 = 0.051	799.52 ± 0.45	–
293.15 K, x2 = 0.0998	790.46 ± 0.46	–
293.15 K, x2 = 0.1008	–	23.26 ± 0.28
293.15 K, x2 = 0.201	–	22.44 ± 0.28
293.15 K, x2 = 0.2067	772.16 ± 0.49	–
293.15 K, x2 = 0.2986	–	21.85 ± 0.28
293.15 K, x2 = 0.3087	756.57 ± 0.52	–
293.15 K, x2 = 0.4002	–	21.37 ± 0.27
293.15 K, x2 = 0.4059	743 ± 0.54	–
293.15 K, x2 = 0.5009	–	21.01 ± 0.27
293.15 K, x2 = 0.5052	730.46 ± 0.56	–
293.15 K, x2 = 0.5986	719.8 ± 0.58	–
293.15 K, x2 = 0.5998	–	20.79 ± 0.27
293.15 K, x2 = 0.7034	–	20.62 ± 0.27
293.15 K, x2 = 0.7259	706.65 ± 0.6	–
293.15 K, x2 = 0.7971	–	20.51 ± 0.27
293.15 K, x2 = 0.8066	699.15 ± 0.62	–
293.15 K, x2 = 0.902	–	20.37 ± 0.27
293.15 K, x2 = 0.908	690.55 ± 0.63	–
293.15 K, x2 = 0.9511	–	20.33 ± 0.27
293.15 K, x2 = 0.9523	687.11 ± 0.64	–
298.15 K, x2 = 0.051	795.66 ± 0.45	–
298.15 K, x2 = 0.056	–	23.17 ± 0.28
298.15 K, x2 = 0.0937	–	22.75 ± 0.28
298.15 K, x2 = 0.0998	786.55 ± 0.47	–
298.15 K, x2 = 0.2067	768.15 ± 0.5	–
298.15 K, x2 = 0.2085	–	21.94 ± 0.28
298.15 K, x2 = 0.302	–	21.35 ± 0.27
298.15 K, x2 = 0.3087	752.48 ± 0.52	–
298.15 K, x2 = 0.3975	–	20.86 ± 0.27
298.15 K, x2 = 0.4059	738.85 ± 0.55	–
298.15 K, x2 = 0.5052	726.25 ± 0.57	–
298.15 K, x2 = 0.5054	–	20.44 ± 0.27
298.15 K, x2 = 0.5986	715.56 ± 0.59	–
298.15 K, x2 = 0.6086	–	20.17 ± 0.27
298.15 K, x2 = 0.7259	702.38 ± 0.61	–
298.15 K, x2 = 0.806	–	19.99 ± 0.27
298.15 K, x2 = 0.8066	694.86 ± 0.62	–
298.15 K, x2 = 0.908	686.27 ± 0.64	–
298.15 K, x2 = 0.9082	–	19.85 ± 0.27
298.15 K, x2 = 0.9502	–	19.81 ± 0.27
298.15 K, x2 = 0.9523	682.83 ± 0.64	–
303.15 K, x2 = 0.0491	–	22.62 ± 0.28
303.15 K, x2 = 0.051	791.77 ± 0.46	–
303.15 K, x2 = 0.0997	–	22.16 ± 0.28
303.15 K, x2 = 0.0998	782.61 ± 0.47	–
303.15 K, x2 = 0.2052	–	21.41 ± 0.27
303.15 K, x2 = 0.2067	764.11 ± 0.5	–
303.15 K, x2 = 0.3051	–	20.81 ± 0.27
303.15 K, x2 = 0.3087	748.35 ± 0.53	–
303.15 K, x2 = 0.4003	–	20.3 ± 0.27
303.15 K, x2 = 0.4059	734.65 ± 0.55	–
303.15 K, x2 = 0.504	–	19.92 ± 0.27
303.15 K, x2 = 0.5052	722 ± 0.57	–
303.15 K, x2 = 0.5966	–	19.72 ± 0.26
303.15 K, x2 = 0.5986	711.28 ± 0.59	–
303.15 K, x2 = 0.7052	–	19.48 ± 0.26
303.15 K, x2 = 0.7259	698.07 ± 0.61	–
303.15 K, x2 = 0.8014	–	19.39 ± 0.26
303.15 K, x2 = 0.8066	690.54 ± 0.63	–
303.15 K, x2 = 0.9024	–	19.3 ± 0.26
303.15 K, x2 = 0.908	681.95 ± 0.64	–
303.15 K, x2 = 0.9507	–	19.27 ± 0.26
303.15 K, x2 = 0.9523	678.52 ± 0.65	–
308.15 K, x2 = 0.0507	–	22.35 ± 0.28
308.15 K, x2 = 0.051	787.85 ± 0.47	–
308.15 K, x2 = 0.0998	778.63 ± 0.48	–
308.15 K, x2 = 0.1017	–	21.89 ± 0.27
308.15 K, x2 = 0.2054	–	20.98 ± 0.27
308.15 K, x2 = 0.2067	760.04 ± 0.51	–
308.15 K, x2 = 0.3025	–	20.33 ± 0.27
308.15 K, x2 = 0.3087	744.18 ± 0.54	–
308.15 K, x2 = 0.4017	–	19.87 ± 0.26
308.15 K, x2 = 0.4059	730.42 ± 0.56	–
308.15 K, x2 = 0.5052	717.71 ± 0.58	19.53 ± 0.26
308.15 K, x2 = 0.5986	706.95 ± 0.6	–
308.15 K, x2 = 0.6007	–	19.28 ± 0.26
308.15 K, x2 = 0.7259	693.71 ± 0.62	–
308.15 K, x2 = 0.7306	–	19.2 ± 0.26
308.15 K, x2 = 0.8066	686.18 ± 0.63	–
308.15 K, x2 = 0.8079	–	19.1 ± 0.26
308.15 K, x2 = 0.908	677.61 ± 0.65	–
308.15 K, x2 = 0.9086	–	18.99 ± 0.26
308.15 K, x2 = 0.9523	674.17 ± 0.66	–
308.15 K, x2 = 0.9532	–	18.9 ± 0.26
